Source: patent publication US5409932A, “Piperazine-substituted pyrroloanthracenes” (Bayer AG, priority 1993, dated 1995)
pIC50: −log10 of the molar value.

Key:
[1] = test system: Adjuvant Arthritis model in the Rat; test: Adjuvant Arthritis model in the Rat (paw swelling); assay type: in vivo; settings: Lewis rats; for inhibition in vivo at 10 mg/kg: Rattus norvegicus, ip, 384 h, 10 mg/kg i.p., days 0, 1, 2, 5, 7, 9, 12 and 14, day 16 vs day 0, read-out: Inhibition of the swelling (%), after administration of 10 mg/kg i.p.; for Inhibition of the swelling (%), after administration of 10 mg/kg i.p.: days 0, 1, 2, 5, 7, 9, 12 and 14, day 16 vs day 0
Procedure: Adjuvant Arthritis model in the Rat
Freund's adjuvant (FA) is prepared by addition of 10 mg/ml of heat-killed Mycobacterium butyricum to extra-heavy mineral oil. Lewis rats receive a 0.1 ml injection of FA (1 mg/animal) subcutaneously in the right hind paw. An acute inflammation takes place there, which is characterized by reddening, edema and a predominant neutrophilic cell infiltration (primary reaction). Tumescent areas in the treated paw on day 5 are followed between day 10-12 by an increase in the swelling (chronic inflammatory reaction) and the occurrence of a swelling in the opposite untreated paw (secondary immune response).
The cell infiltration of the chronic inflammation and the second immune response are mainly mononuclear, which indicates the presence of T-cell mediated immunity. The animals are observed daily, and the swelling is measured in millimeters on days 12 and 16 using a hand-adjustable micrometer. The swelling reaches its peak on the 16th day, on which the animals are sacrificed and tissue samples are taken for histological evaluation.
The extent of the swelling is determined by calculation of the greatest difference in the malleolus diameter between the 16th and the 0th day.
The animals receive the compounds according to the invention in a suspension of 5% polyethylene glycol and 0.5% Tween 80 in phosphate buffer solution p.o. or i.p. on days 0, 1, 2, 5, 7, 9, 12 and 14 [cf. for this purpose L. Sokoloff, 1984, Int. Rev. Exp. Pathol. 26, 107; M. E. J. Bittingham et al., 1989, J. Exp. Med. 171, 339; K. M. Conholly et al., 1989, Agents and Actions 27, 328].

human T cells = test: Inhibition of 5-HT-dependent T Cell Proliferation; assay type: cell-based; settings: monocyte-free human T cells stimulated with PWM and 5-HT, 3H-thymidine incorporation, 7 days
From the text: The in vitro activity of the compounds according to the invention results from their capability to inhibit T cell proliferation, which is previously stimulated by serotonin.
Inhibition of 5-HT-dependent T Cell Proliferation
Peripheral mononuclear blood cells (PBMC) are obtained from the buffy coat of the blood of healthy subjects. After isolation by means of isolymph gradients (Pharmacia), the PBMC are washed twice and used directly. Purified T cells are obtained by E rosette formation with sheep erythrocytes [cf. Blue, M.-L. , J. F. Daley, H. Levine, K. A. Craig and S. F. Schlossmann, 1986, Biosynthesis and surface expression of T8 by peripheral blood T4+cells in vitro, J. Immunol. 137, 1202]. Monocytes are partially removed by adhesion to tissue culture plates or flasks. PBMC, T cells or purified T cells (depleted in monocytes) at 5×10^5 /ml, 100 μl/well are cultured in RPMI 1640 medium with 10% fetal calf serum (GIBCO) and L-glutamine in 96-well microculture plates (Becton--Dickinson)under a 5% CO2 atmosphere at 37° C. for 7 days. The cultures are treated with 1 μCi of ^3 H-thymidine for 6 h on the 7th day and collected on filter paper, and the incorporated radioactivity is determined by means of liquid scintillation counting.
The test substances are dissolved in 10 mM HCl in order to achieve a final concentration of 1 mM in each case. The compounds are diluted serially 3×with medium in order to obtain a final concentration between 33 μM-0.1 μM. PWM (1:200, pokeweed mitogen) and 5-HT (100 μm, serotonin), which contain the test substances, are added to monocyte-free human T cells. The positive control (maximum proliferation) is obtained from cultures containing T cells, PWM and 5-HT. The negative control (minimal proliferation) is obtained from cultures containing T cells and PWM without 5-HT. The inhibitory activity of the test substances is expressed as the IC50 in μM. (see also WO 92/04015)

SMILES | inhibition in vivo at 10 mg/kg [1] | pIC50 (human T cells; Homo sapiens, T-cell) | Inhibition of the swelling (%), after administration of 10 mg/kg i.p. [1] | pIC50 (human T cells)
c1ccc(N2CCN(CCCN3CC4C5c6ccccc6C(c6ccccc65)C4C3)CC2)cc1 (centres unmarked) [Example 61] | 50% | 5.30 |  | 
CC12c3ccccc3C(c3ccccc31)C1C(=O)N(CCCN3CCN(c4ccc(Cl)cc4)CC3)C(=O)C12 (centres unmarked) [Example 30] | 47% | 5.30 |  | 
COc1ccccc1N1CCN(CCCCN2CC3C4c5ccccc5C(c5ccccc54)C3C2)CC1 (centres unmarked) [Example 71] | 82% | 5.30 |  | 
c1ccc(N2CCN(CCCCCN3CC4C5c6ccccc6C(c6ccccc65)C4C3)CC2)cc1 (centres unmarked) [Example 63] | 26% | 6.30 |  | 
Cc1ccc(N2CCN(CCCCN3CC4C5c6ccccc6C(c6ccccc65)C4C3)CC2)cc1 (centres unmarked) [Example 74] | 76% | 6.22 |  | 
Clc1ccc(N2CCN(CCCN3CC4C5c6ccccc6C(c6ccccc65)C4C3)CC2)cc1 (centres unmarked) [Example 108] |  |  | 55% | 5.40
Cc1cccc(C)c1N1CCN(CCCN2CC3C4c5ccccc5C(c5ccccc54)C3C2)CC1 (centres unmarked) [Example 88] | 73% | 6.00 |  | 
CC12c3ccccc3C(c3ccccc31)C1C(=O)N(CCCN3CCN(c4ccccc4)CC3)C(=O)C12 (centres unmarked) [Example 29] | 24% | < 5.00 |  | 
Fc1ccc(N2CCN(CCCN3CC4C5c6ccccc6C(c6ccccc65)C4C3)CC2)cc1 (centres unmarked) [Example 58, 13-{3-[4-(4-Fluorophenyl)-piperazin-1-yl]propyl}-9,10,11,12,14,15-hexahydro-9,10[3', 4']pyrroloanthracene] | 40% | 5.30 |  | 
c1ccc(N2CCN(CCN3CC4C5c6ccccc6C(c6ccccc65)C4C3)CC2)cc1 (centres unmarked) [Example 60] | 40% | 5.30 |  | 
Clc1ccc(N2CCN(CCCN3CC4C5c6ccccc6C(c6ccccc65)C4C3)CC2)cc1 (centres unmarked) [Example 109] |  |  | 34% | 5.30
c1ccc(N2CCN(CCCCCCN3CC4C5c6ccccc6C(c6ccccc65)C4C3)CC2)cc1 (centres unmarked) [Example 64] | 76% | 6.00 |  | 
Fc1ccccc1N1CCN(CCCCN2CC3C4c5ccccc5C(c5ccccc54)C3C2)CC1 (centres unmarked) [Example 72] | 87% | 5.70 |  | 
CC12C(=O)N(CCCN3CCN(c4ccccc4)CC3)C(=O)C1C1c3ccccc3C2c2ccccc21 (centres unmarked) [Example 39] | 20% | < 5.00 |  | 
Clc1ccccc1N1CCN(CCCN2CC3C4c5ccccc5C(c5ccccc54)C3C2)CC1 (centres unmarked) [Example 82] | 35% | 5.30 |  | 
Cc1ccc(N2CCN(CCCN3CC4C5c6ccccc6C(c6ccccc65)C4C3)CC2)c(C)c1 (centres unmarked) [Example 90] | 45% | 5.30 |  | 
CCOc1ccccc1N1CCN(CCCN2CC3C4c5ccccc5C(c5ccccc54)C3C2)CC1 (centres unmarked) [Example 87] | 22% | 5.30 |  | 

SMILES | inhibition in vivo at 10 mg/kg [1] | pIC50 (human T cells; Homo sapiens, T-cell) | Inhibition of the swelling (%), after administration of 10 mg/kg i.p. [1] | pIC50 (human T cells)
Clc1ccc(N2CCN(CCCN3CC4C5c6ccccc6C(c6ccccc65)C4C3)CC2)cc1 (centres unmarked) [Example 59] |  | 5.52 | 53% | 
c1ccc(N2CCN(CCCCN3CC4C5c6ccccc6C(c6ccccc65)C4C3)CC2)cc1 (centres unmarked) [Example 62] | 90% | 5.30 |  | 
O=C1C2C3c4ccccc4C(CO)(c4ccccc43)C2C(=O)N1CCCN1CCN(c2ccc(F)cc2)CC1 (centres unmarked) [Example 33] | 33% | < 5.00 |  | 
O=C1C2C3c4ccccc4C(c4ccccc43)C2C(=O)N1CCCN1CCN(c2ccc(Cl)cc2)CC1 (centres unmarked) [Example 2] | 4% |  |  | 
O=C1C2C(C(=O)N1CCCN1CCN(c3ccc(F)cc3)CC1)C1(Br)c3ccccc3C2(Br)c2ccccc21 (centres unmarked) [Example 45] |  | < 5.00 |  | 
CC12c3ccccc3C(c3ccccc31)C1CN(CCCN3CCN(c4ccc(Cl)cc4)CC3)CC12 (centres unmarked) [Example 95] |  | 5.30 |  | 
COc1cccc(N2CCN(CCCN3C(=O)C4C5c6ccccc6C(c6ccccc65)C4C3=O)CC2)c1 (centres unmarked) [Example 16] |  | < 5.00 |  | 
CC12c3ccccc3C(c3ccccc31)C1C(=O)N(CCCN3CCN(c4ccc(F)cc4)CC3)C(=O)C12 (centres unmarked) [Example 31] |  | < 5.00 |  | 
Cc1cccc(C)c1N1CCN(CCCN2C(=O)C3C4c5ccccc5C(c5ccccc54)C3C2=O)CC1 (centres unmarked) [Example 23] |  | < 5.00 |  | 
O=C1N(CCCN2CCN(c3ccc(F)cc3)CC2)CC2C3c4ccccc4C(c4ccccc43)C12c1ccccc1 (centres unmarked) [Example 117] |  | 5.70 |  | 
Cc1ccc(N2CCN(CCCN3C(=O)C4C5c6ccccc6C(c6ccccc65)C4C3=O)CC2)cc1 (centres unmarked) [Example 11] | 32% | < 5.00 |  | 
Clc1ccc(N2CCN(CCCCN3CC4C5c6ccccc6C(c6ccccc65)C4C3)CC2)cc1Cl (centres unmarked) [Example 68] |  | 5.30 |  | 
O=C1C2C3c4ccccc4C(c4ccccc43)C2C(=O)N1CCCCN1CCN(c2ccccc2F)CC1 (centres unmarked) [Example 6] |  | < 5.00 |  | 
O=C1C2C(CN1CCCN1CCN(c3ccc(F)cc3)CC1)C1(Cl)c3ccccc3C2(Cl)c2ccccc21 (centres unmarked) [Example 112] |  | 5.30 |  | 
O=C1N(CCCN2CCN(c3ccc(F)cc3)CC2)C(=O)C2(Cl)C3c4ccccc4C(c4ccccc43)C12Cl (centres unmarked) [Example 51] |  | 4.30 |  | 
CC12C(=O)N(CCCN3CCN(c4ccc(F)cc4)CC3)C(=O)C1C1c3ccccc3C2c2ccccc21 (centres unmarked) [Example 40] | 29% | 5.30 |  | 
C=CC12c3ccccc3C(c3ccccc31)C1CN(CCCN3CCN(c4ccc(F)cc4)CC3)CC12 (centres unmarked) [Example 102] |  | 5.70 |  | 
